The data set addresses T1, CYP17 (steroid 17-alpha-hydroxylase/17,20 lyase) (Homo sapiens, UniProt P05093).
T1 sequence (P05093 whole entry): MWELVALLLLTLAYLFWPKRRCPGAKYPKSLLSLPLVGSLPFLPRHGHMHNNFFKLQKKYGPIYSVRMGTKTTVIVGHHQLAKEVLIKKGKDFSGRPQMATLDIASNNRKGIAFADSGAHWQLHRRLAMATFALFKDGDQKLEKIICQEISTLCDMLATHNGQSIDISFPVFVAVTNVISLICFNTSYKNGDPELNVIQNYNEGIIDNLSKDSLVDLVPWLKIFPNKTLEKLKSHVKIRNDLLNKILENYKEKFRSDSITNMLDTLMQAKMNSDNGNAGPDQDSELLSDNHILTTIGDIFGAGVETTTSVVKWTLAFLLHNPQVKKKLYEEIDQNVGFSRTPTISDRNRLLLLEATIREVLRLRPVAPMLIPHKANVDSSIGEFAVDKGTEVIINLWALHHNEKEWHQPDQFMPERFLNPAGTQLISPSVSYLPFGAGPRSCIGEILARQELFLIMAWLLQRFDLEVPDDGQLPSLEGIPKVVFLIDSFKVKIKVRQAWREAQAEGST
Kind of data set: in vitro.
Description: Inhibition of human CYP17 expressed in Escherichia coli at 2.5 uM
Consider `O=c1c([C@@H](c2ccc([N+](=O)[O-])cc2)n2ccnc2)coc2ccccc12`, for which 2.5 µM produced 20% inhibition.
The molecule `N#Cc1ccc([C@H](c2coc3ccccc3c2=O)n2ccnc2)cc1` came in with an inhibition at 2.5 µM of 6%.
For the molecule `O=c1c([C@H](c2ccc(Br)cc2)n2ccnc2)coc2ccccc12`, at 2.5 µM the inhibition was 13%.
`N#Cc1ccc([C@@H](c2coc3ccccc3c2=O)n2ccnc2)cc1` returned an inhibition at 2.5 µM of 6%.
`O=c1c([C@@H](c2ccc(Br)cc2)n2ccnc2)coc2ccccc12` displayed an inhibition at 2.5 µM of 17%.
The same measure for `O=c1c([C@H](c2ccc([N+](=O)[O-])cc2)n2ccnc2)coc2ccccc12`: 12%.
